Data: the kinase profiling compilation of Christmann-Franck et al. (2016)

Key:
Experiment in all cases: KINOMEscan competition binding
Conditions in all cases: compound 10.0 µM
ANKK1 (human) = ANKK1 (human) (UniProt Q8NFD2)
BRAF (human) = BRAF (human) (UniProt P15056)
CAMK4 (human) = CAMK4 (human) (UniProt Q16566)
CDC42BPG (human) = CDC42BPG (human) (UniProt Q6DT37)
CDK11B (human) = CDK11B (human) (UniProt P21127)
CSNK2A2 (human) = CSNK2A2 (human) (UniProt P19784)
DAPK3 (human) = DAPK3 (human) (UniProt O43293)
DCLK1 (human) = DCLK1 (human) (UniProt O15075)
DYRK1B (human) = DYRK1B (human) (UniProt Q9Y463)
EPHA1 (human) = EPHA1 (human) (UniProt P21709)
EPHA5 (human) = EPHA5 (human) (UniProt P54756)
EPHB1 (human) = EPHB1 (human) (UniProt P54762)
IKBKB (human) = IKBKB (human) (UniProt O14920)
IRAK3 (human) = IRAK3 (human) (UniProt Q9Y616)
KIT (human) = KIT (human) (UniProt P10721)
MAP2K1 (human) = MAP2K1 (human) (UniProt Q02750)
MAP3K3 (human) = MAP3K3 (human) (UniProt Q99759)
MAPK8 (human) = MAPK8 (human) (UniProt P45983)
MARK4 (human) = MARK4 (human) (UniProt Q96L34)
NUAK2 (human) = NUAK2 (human) (UniProt Q9H093)
PAK7 (human) = PAK7 (human) (UniProt Q9P286)
PIK3CG (human) = PIK3CG (human) (UniProt P48736)
RIPK1 (human) = RIPK1 (human) (UniProt Q13546)
STK17B (human) = STK17B (human) (UniProt O94768)
SYK (human) = SYK (human) (UniProt P43405)
[1] = biological target: TYK2 JH2 pseudokinase (human) (UniProt P29597)
ZAP70 (human) = ZAP70 (human) (UniProt P43403)
ERN1 (human) = ERN1 (human) (UniProt O75460)
GRK7 (human) = GRK7 (human) (UniProt Q8WTQ7)
HIPK4 (human) = HIPK4 (human) (UniProt Q8NE63)
[2] = test system: KIT (human), P10721 [L576P]
MATK (human) = MATK (human) (UniProt P42679)
PI4KB (human) = PI4KB (human) (UniProt Q9UBF8)
PLK2 (human) = PLK2 (human) (UniProt Q9NYY3)
SBK1 (human) = SBK1 (human) (UniProt Q52WX2)

IRAK3 (human), sequence (Q9Y616 whole entry, looked up): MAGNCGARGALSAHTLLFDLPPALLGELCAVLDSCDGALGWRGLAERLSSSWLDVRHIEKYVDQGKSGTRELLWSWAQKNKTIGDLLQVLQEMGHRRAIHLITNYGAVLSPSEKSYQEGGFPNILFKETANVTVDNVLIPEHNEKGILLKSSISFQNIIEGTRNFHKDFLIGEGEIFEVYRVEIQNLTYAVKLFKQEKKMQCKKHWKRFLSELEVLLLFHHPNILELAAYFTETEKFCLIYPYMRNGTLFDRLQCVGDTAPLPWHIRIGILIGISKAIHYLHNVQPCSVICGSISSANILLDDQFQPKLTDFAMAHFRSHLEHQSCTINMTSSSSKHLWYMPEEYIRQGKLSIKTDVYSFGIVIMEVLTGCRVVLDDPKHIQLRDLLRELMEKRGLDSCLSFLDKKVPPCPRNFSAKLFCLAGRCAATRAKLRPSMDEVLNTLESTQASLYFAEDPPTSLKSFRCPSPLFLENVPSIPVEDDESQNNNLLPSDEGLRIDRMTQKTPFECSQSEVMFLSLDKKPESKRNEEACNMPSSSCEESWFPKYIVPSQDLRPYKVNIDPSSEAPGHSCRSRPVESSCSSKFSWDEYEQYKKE
MARK4 (human), sequence (Q96L34 whole entry, looked up): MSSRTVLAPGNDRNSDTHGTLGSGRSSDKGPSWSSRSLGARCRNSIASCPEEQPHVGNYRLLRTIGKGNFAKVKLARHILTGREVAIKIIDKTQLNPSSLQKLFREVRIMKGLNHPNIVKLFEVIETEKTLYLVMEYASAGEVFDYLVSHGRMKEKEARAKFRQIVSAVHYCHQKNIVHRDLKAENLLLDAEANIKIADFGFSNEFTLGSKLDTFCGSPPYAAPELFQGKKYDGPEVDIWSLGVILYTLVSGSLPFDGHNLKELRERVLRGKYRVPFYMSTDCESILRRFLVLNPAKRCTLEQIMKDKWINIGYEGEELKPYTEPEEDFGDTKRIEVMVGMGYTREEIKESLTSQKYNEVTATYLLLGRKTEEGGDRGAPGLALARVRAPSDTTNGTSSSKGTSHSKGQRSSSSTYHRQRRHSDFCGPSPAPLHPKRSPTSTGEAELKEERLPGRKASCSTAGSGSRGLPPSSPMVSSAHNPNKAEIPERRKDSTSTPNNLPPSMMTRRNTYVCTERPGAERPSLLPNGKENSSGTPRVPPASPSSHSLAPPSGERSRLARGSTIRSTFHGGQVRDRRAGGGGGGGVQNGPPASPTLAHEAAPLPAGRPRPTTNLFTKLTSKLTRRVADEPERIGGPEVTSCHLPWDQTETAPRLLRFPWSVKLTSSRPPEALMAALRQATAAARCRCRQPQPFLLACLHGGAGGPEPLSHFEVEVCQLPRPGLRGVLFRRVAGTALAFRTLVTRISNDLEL
DCLK1 (human), sequence (O15075 whole entry, looked up): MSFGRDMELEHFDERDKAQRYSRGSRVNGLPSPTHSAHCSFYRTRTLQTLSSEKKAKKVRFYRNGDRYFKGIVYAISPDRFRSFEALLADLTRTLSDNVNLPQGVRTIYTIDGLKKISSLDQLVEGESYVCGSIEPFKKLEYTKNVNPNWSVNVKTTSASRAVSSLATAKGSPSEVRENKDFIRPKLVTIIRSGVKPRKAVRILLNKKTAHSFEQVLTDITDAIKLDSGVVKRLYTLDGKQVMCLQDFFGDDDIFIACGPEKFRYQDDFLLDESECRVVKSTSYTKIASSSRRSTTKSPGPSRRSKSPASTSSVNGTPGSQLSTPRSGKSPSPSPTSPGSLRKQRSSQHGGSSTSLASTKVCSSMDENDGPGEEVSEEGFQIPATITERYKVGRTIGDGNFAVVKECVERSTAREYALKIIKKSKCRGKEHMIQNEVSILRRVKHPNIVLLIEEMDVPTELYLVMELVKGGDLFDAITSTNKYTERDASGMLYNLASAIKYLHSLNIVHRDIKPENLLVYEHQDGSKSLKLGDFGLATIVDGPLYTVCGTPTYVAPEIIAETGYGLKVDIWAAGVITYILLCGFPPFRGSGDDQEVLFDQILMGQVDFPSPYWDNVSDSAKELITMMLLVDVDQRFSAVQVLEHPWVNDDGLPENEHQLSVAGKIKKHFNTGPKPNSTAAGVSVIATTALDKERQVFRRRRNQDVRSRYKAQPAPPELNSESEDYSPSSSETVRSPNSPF
NUAK2 (human), sequence (Q9H093 whole entry, looked up): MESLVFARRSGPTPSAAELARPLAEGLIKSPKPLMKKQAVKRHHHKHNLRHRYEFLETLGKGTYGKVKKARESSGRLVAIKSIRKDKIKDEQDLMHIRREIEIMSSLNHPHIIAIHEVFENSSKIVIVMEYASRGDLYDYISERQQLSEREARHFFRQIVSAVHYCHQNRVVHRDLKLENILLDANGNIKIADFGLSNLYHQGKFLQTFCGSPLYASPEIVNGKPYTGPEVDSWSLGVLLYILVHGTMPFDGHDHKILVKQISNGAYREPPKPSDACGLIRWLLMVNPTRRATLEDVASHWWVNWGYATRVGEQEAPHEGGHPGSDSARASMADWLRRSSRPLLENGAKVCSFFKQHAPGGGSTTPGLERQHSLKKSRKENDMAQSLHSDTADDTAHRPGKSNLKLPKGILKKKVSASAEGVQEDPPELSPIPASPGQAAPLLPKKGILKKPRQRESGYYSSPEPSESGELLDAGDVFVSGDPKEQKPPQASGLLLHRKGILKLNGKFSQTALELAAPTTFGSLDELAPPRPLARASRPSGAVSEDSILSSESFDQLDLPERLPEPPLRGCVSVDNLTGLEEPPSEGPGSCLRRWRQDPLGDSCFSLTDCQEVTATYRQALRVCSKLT
DAPK3 (human), sequence (O43293 whole entry, looked up): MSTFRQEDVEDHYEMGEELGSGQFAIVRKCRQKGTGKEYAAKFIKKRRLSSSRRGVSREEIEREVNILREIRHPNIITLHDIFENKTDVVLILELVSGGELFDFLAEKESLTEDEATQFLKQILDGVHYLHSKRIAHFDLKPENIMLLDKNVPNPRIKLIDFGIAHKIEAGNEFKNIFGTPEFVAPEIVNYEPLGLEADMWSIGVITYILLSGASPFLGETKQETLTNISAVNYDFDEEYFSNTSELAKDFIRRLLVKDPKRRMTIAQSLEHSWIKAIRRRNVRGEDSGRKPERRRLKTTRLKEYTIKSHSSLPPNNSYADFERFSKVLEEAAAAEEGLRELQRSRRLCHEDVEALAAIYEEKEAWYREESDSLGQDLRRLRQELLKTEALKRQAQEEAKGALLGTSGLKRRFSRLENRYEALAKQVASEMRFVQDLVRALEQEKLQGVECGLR
ZAP70 (human), sequence (P43403 whole entry, looked up): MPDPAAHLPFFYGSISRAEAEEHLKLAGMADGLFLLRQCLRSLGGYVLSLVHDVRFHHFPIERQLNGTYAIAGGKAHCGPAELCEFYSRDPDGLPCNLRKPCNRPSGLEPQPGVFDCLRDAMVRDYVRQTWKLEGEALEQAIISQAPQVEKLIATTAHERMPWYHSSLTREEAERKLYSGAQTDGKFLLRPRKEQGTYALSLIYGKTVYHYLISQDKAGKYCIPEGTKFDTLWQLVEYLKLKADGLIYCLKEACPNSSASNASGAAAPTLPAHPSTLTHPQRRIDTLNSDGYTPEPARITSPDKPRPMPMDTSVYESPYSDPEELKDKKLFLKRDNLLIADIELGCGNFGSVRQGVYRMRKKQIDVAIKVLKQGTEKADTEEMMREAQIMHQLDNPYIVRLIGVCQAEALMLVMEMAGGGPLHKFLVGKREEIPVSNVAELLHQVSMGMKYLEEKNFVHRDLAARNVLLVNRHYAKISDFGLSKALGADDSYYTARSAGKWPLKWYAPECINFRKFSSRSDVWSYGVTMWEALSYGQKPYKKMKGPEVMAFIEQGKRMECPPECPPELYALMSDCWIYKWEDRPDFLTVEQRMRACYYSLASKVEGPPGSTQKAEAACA
EPHB1 (human), sequence (P54762 whole entry, looked up): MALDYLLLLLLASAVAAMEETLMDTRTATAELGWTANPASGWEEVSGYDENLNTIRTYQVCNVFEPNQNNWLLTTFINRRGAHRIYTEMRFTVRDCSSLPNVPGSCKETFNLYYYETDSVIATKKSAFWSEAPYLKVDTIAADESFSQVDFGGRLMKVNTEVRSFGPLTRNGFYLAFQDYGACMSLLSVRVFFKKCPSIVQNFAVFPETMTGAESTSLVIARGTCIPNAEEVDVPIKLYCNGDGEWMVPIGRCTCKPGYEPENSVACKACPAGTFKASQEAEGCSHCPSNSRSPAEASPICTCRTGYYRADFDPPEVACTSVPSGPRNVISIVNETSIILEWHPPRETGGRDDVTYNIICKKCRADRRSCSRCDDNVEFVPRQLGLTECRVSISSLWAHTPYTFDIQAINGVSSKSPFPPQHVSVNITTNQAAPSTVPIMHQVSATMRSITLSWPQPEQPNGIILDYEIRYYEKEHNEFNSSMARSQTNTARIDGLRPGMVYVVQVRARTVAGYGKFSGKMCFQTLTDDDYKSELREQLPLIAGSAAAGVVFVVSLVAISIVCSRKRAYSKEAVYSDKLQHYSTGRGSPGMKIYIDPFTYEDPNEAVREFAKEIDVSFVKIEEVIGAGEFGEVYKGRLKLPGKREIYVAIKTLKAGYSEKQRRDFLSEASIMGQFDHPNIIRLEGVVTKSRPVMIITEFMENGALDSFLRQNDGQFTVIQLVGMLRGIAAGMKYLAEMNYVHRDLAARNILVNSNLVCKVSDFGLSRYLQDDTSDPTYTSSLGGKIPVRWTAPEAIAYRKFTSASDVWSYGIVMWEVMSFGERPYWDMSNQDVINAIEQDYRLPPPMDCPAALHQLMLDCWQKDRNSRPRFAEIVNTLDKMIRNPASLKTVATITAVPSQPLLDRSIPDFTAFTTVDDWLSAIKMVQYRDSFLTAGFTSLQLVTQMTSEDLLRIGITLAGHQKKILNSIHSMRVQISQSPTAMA

SMILES: C=CC(=O)Nc1ccc(CN(C(=O)Nc2c(Cl)c(OC)cc(OC)c2Cl)c2cc(Nc3ccc(N4CCN(C)CC4)cc3)ncn2)cc1
- kinase still bound, per cent of control (ANKK1 (human)): 100%
- kinase still bound, per cent of control (BRAF (human)): 100%
- kinase still bound, per cent of control (CAMK4 (human)): 100%
- kinase still bound, per cent of control (CDC42BPG (human)): 100%
- kinase still bound, per cent of control (CDK11B (human)): 100%
- kinase still bound, per cent of control (CSNK2A2 (human)): 100%
- kinase still bound, per cent of control (DAPK3 (human)): 100%
- kinase still bound, per cent of control (DCLK1 (human)): 100%
- kinase still bound, per cent of control (DYRK1B (human)): 100%
- kinase still bound, per cent of control (EPHA1 (human)): 100%
- kinase still bound, per cent of control (EPHA5 (human)): 100%
- kinase still bound, per cent of control (EPHB1 (human)): 100%
- kinase still bound, per cent of control (IKBKB (human)): 100%
- kinase still bound, per cent of control (IRAK3 (human)): 100%
- kinase still bound, per cent of control (KIT (human)): 0.3%
- kinase still bound, per cent of control (MAP2K1 (human)): 100%
- kinase still bound, per cent of control (MAP3K3 (human)): 5.8%
- kinase still bound, per cent of control (MAPK8 (human)): 100%
- kinase still bound, per cent of control (MARK4 (human)): 100%
- kinase still bound, per cent of control (NUAK2 (human)): 100%
- kinase still bound, per cent of control (PAK7 (human)): 100%
- kinase still bound, per cent of control (PIK3CG (human)): 100%
- kinase still bound, per cent of control (RIPK1 (human)): 100%
- kinase still bound, per cent of control (STK17B (human)): 100%
- kinase still bound, per cent of control (SYK (human)): 100%
- kinase still bound, per cent of control [1]: 100%
- kinase still bound, per cent of control (ZAP70 (human)): 100%

SMILES: CS(=O)(=O)N1CCN(Cc2cc3nc(-c4cccc5[nH]ncc45)nc(N4CCOCC4)c3s2)CC1
- kinase still bound, per cent of control (ANKK1 (human)): 100%
- kinase still bound, per cent of control (BRAF (human)): 100%
- kinase still bound, per cent of control (CAMK4 (human)): 100%
- kinase still bound, per cent of control (CDC42BPG (human)): 100%
- kinase still bound, per cent of control (CDK11B (human)): 100%
- kinase still bound, per cent of control (CSNK2A2 (human)): 100%
- kinase still bound, per cent of control (DAPK3 (human)): 100%
- kinase still bound, per cent of control (DCLK1 (human)): 100%
- kinase still bound, per cent of control (DYRK1B (human)): 100%
- kinase still bound, per cent of control (EPHA1 (human)): 100%
- kinase still bound, per cent of control (EPHA5 (human)): 100%
- kinase still bound, per cent of control (EPHB1 (human)): 100%
- kinase still bound, per cent of control (ERN1 (human)): 100%
- kinase still bound, per cent of control (GRK7 (human)): 100%
- kinase still bound, per cent of control (HIPK4 (human)): 100%
- kinase still bound, per cent of control (IKBKB (human)): 100%
- kinase still bound, per cent of control (IRAK3 (human)): 100%
- kinase still bound, per cent of control (KIT (human)): 100%
- kinase still bound, per cent of control [2]: 100%
- kinase still bound, per cent of control (MAP2K1 (human)): 100%
- kinase still bound, per cent of control (MAP3K3 (human)): 100%
- kinase still bound, per cent of control (MAPK8 (human)): 100%
- kinase still bound, per cent of control (MARK4 (human)): 100%
- kinase still bound, per cent of control (MATK (human)): 100%
- kinase still bound, per cent of control (NUAK2 (human)): 100%
- kinase still bound, per cent of control (PAK7 (human)): 100%
- kinase still bound, per cent of control (PI4KB (human)): 100%
- kinase still bound, per cent of control (PLK2 (human)): 100%
- kinase still bound, per cent of control (RIPK1 (human)): 100%
- kinase still bound, per cent of control (SBK1 (human)): 100%
- kinase still bound, per cent of control (STK17B (human)): 100%
- kinase still bound, per cent of control (SYK (human)): 100%
- kinase still bound, per cent of control [1]: 100%
- kinase still bound, per cent of control (ZAP70 (human)): 100%

SMILES: CCN(CC)CCCCNc1ncc2cc(-c3cc(OC)cc(OC)c3)c(NC(=O)NC(C)(C)C)nc2n1
- kinase still bound, per cent of control (ANKK1 (human)): 100%
- kinase still bound, per cent of control (BRAF (human)): 100%
- kinase still bound, per cent of control (CAMK4 (human)): 100%
- kinase still bound, per cent of control (CDC42BPG (human)): 100%
- kinase still bound, per cent of control (CDK11B (human)): 100%
- kinase still bound, per cent of control (CSNK2A2 (human)): 100%
- kinase still bound, per cent of control (DAPK3 (human)): 100%
- kinase still bound, per cent of control (DCLK1 (human)): 100%
- kinase still bound, per cent of control (DYRK1B (human)): 100%
- kinase still bound, per cent of control (EPHA1 (human)): 100%
- kinase still bound, per cent of control (EPHA5 (human)): 100%
- kinase still bound, per cent of control (EPHB1 (human)): 100%
- kinase still bound, per cent of control (IRAK3 (human)): 100%
- kinase still bound, per cent of control (KIT (human)): 100%
- kinase still bound, per cent of control (MAP2K1 (human)): 100%
- kinase still bound, per cent of control (MAPK8 (human)): 100%
- kinase still bound, per cent of control (MARK4 (human)): 100%
- kinase still bound, per cent of control (NUAK2 (human)): 100%
- kinase still bound, per cent of control (PAK7 (human)): 100%
- kinase still bound, per cent of control (RIPK1 (human)): 100%
- kinase still bound, per cent of control (STK17B (human)): 100%
- kinase still bound, per cent of control (SYK (human)): 100%
- kinase still bound, per cent of control (ZAP70 (human)): 100%

SMILES: Cc1n[nH]c2ccc(-c3cncc(OC[C@@H](N)Cc4c[nH]c5ccccc45)c3)cc12
- kinase still bound, per cent of control (ANKK1 (human)): 100%
- kinase still bound, per cent of control (BRAF (human)): 100%
- kinase still bound, per cent of control (CAMK4 (human)): 12%
- kinase still bound, per cent of control (CDC42BPG (human)): 0.8%
- kinase still bound, per cent of control (CDK11B (human)): 100%
- kinase still bound, per cent of control (CSNK2A2 (human)): 13%
- kinase still bound, per cent of control (DAPK3 (human)): 2.3%
- kinase still bound, per cent of control (DCLK1 (human)): 100%
- kinase still bound, per cent of control (DYRK1B (human)): 0%
- kinase still bound, per cent of control (EPHA1 (human)): 100%
- kinase still bound, per cent of control (EPHA5 (human)): 100%
- kinase still bound, per cent of control (EPHB1 (human)): 100%
- kinase still bound, per cent of control (IKBKB (human)): 34%
- kinase still bound, per cent of control (IRAK3 (human)): 30%
- kinase still bound, per cent of control (KIT (human)): 100%
- kinase still bound, per cent of control (MAP2K1 (human)): 100%
- kinase still bound, per cent of control (MAP3K3 (human)): 29%
- kinase still bound, per cent of control (MAPK8 (human)): 100%
- kinase still bound, per cent of control (MARK4 (human)): 100%
- kinase still bound, per cent of control (NUAK2 (human)): 1.9%
- kinase still bound, per cent of control (PAK7 (human)): 16%
- kinase still bound, per cent of control (PIK3CG (human)): 100%
- kinase still bound, per cent of control (RIPK1 (human)): 100%
- kinase still bound, per cent of control (STK17B (human)): 20%
- kinase still bound, per cent of control (SYK (human)): 100%
- kinase still bound, per cent of control [1]: 100%
- kinase still bound, per cent of control (ZAP70 (human)): 100%
